# From US6355799B1, “Substituted benzene compounds, process for their preparation, and herbicidal and defoliant compositions containing them” (ISK Americas Incorporated, priority 1997, dated 2002)
# Legend:
# Assay type in all cases: in vivo
# [1] = tested on: sicklepod (Cassia obtusifolia, CASOB); assay: Pre-emerge test, greenhouse herbicide activity screening; conditions: pre-emerge, 14 days after application, scale 0-100
# Outline: (§1)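 Herbicidal damage is scored 0 (none) to 100 (complete plant death) two weeks after a simulated field spray. Rates span 15–1000 g ai/ha, delivered in acetone at 187 l/ha. For post-emergence treatments, plants have 2–3 leaves and the spray carries 0.25% v/v non-ionic surfactant.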
# [2] = tested on: green foxtail (Setaria viridis, SETVI); assay: as above; conditions: pre-emerge, 14 days after application, scale 0-100
# Outline: as §1
# [3] = tested on: velvetleaf (Abutilon theophrasti, ABUTH); assay: as above; conditions: pre-emerge, 14 days after application, scale 0-100
# Outline: as §1
# [4] = tested on: lambsquarters (Chenopodium album, CHEAL); assay: as above; conditions: pre-emerge, 14 days after application, scale 0-100
# Outline: as §1
# [5] = tested on: large crabgrass (Digitaria sanguinalis, DIGSA); assay: as above; conditions: pre-emerge, 14 days after application, scale 0-100
# Outline: as §1
# [6] = tested on: barnyardgrass (Echinochloa crus-galli, ECHCG); assay: as above; conditions: pre-emerge, 14 days after application, scale 0-100
# Outline: as §1
# [7] = tested on: ivyleaf morningglory (Ipomoea hederacea, IPOHE); assay: as above; conditions: pre-emerge, 14 days after application, scale 0-100
# Outline: as §1
# [8] = tested on: redroot pigweed (Amaranthus retroflexus, AMARE); assay: as above; conditions: pre-emerge, 14 days after application, scale 0-100
# Outline: (§2)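 Compounds in acetone were track-sprayed at 187 l/ha, 15–1000 g ai/ha, onto sandy loam pots. Pre-emerge seeds were sown one day before spraying, with surface watering afterwards. Post-emerge plants were at the 2–3 leaf stage and sprayed with 0.25% v/v non-ionic surfactant. Injury was rated 0–100 at 14 days.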
# [9] = tested on: johnsongrass (Sorghum halepense, SORHA); assay: Post-emerge test, greenhouse herbicide activity screening; conditions: post-emerge; for SORHA phytotoxicity rating / Post-emerge Herbicidal Activity SORHA (phytotoxicity rating): 14 days after application, rating scale 0-100; for Post-emerge Herbicidal Activity SORHA: phytotoxicity rating 0-100 at 14 days after application
# Outline: as §2
# [10] = tested on: sicklepod (Cassia obtusifolia, CASOB); assay: as above; conditions: post-emerge; for CASOB phytotoxicity rating / Post-emerge Herbicidal Activity CASOB (phytotoxicity rating): 14 days after application, rating scale 0-100; for Post-emerge Herbicidal Activity CASOB: phytotoxicity rating 0-100 at 14 days after application
# Outline: as §2
# [11] = tested on: green foxtail (Setaria viridis, SETVI); assay: as above; conditions: post-emerge; for SETVI phytotoxicity rating / Post-emerge Herbicidal Activity SETVI (phytotoxicity rating): 14 days after application, rating scale 0-100; for Post-emerge Herbicidal Activity SETVI: phytotoxicity rating 0-100 at 14 days after application
# Outline: as §2
# [12] = tested on: velvetleaf (Abutilon theophrasti, ABUTH); assay: as above; conditions: post-emerge; for ABUTH phytotoxicity rating / Post-emerge Herbicidal Activity ABUTH (phytotoxicity rating): 14 days after application, rating scale 0-100; for Post-emerge Herbicidal Activity ABUTH: phytotoxicity rating 0-100 at 14 days after application
# Outline: as §2
# [13] = tested on: lambsquarters (Chenopodium album, CHEAL); assay: as above; conditions: post-emerge; for CHEAL phytotoxicity rating / Post-emerge Herbicidal Activity CHEAL (phytotoxicity rating): 14 days after application, rating scale 0-100; for Post-emerge Herbicidal Activity CHEAL: phytotoxicity rating 0-100 at 14 days after application
# Outline: as §2
# [14] = tested on: redroot pigweed (Amaranthus retroflexus, AMARE); assay: as above; conditions: post-emerge; for AMARE phytotoxicity rating / Post-emerge Herbicidal Activity AMARE (phytotoxicity rating): 14 days after application; for Post-emerge Herbicidal Activity AMARE: phytotoxicity rating 0-100 at 14 days after application
# Outline: as §2
# [15] = tested on: large crabgrass (Digitaria sanguinalis, DIGSA); assay: as above; conditions: post-emerge; for DIGSA phytotoxicity rating / Post-emerge Herbicidal Activity DIGSA (phytotoxicity rating): 14 days after application, rating scale 0-100; for Post-emerge Herbicidal Activity DIGSA: phytotoxicity rating 0-100 at 14 days after application
# Outline: as §2
# [16] = tested on: barnyardgrass (Echinochloa crus-galli, ECHCG); assay: as above; conditions: post-emerge; for ECHCG phytotoxicity rating / Post-emerge Herbicidal Activity ECHCG (phytotoxicity rating): 14 days after application, rating scale 0-100; for Post-emerge Herbicidal Activity ECHCG: phytotoxicity rating 0-100 at 14 days after application
# Outline: as §2
# [17] = tested on: ivyleaf morningglory (Ipomoea hederacea, IPOHE); assay: as above; conditions: post-emerge; for IPOHE phytotoxicity rating / Post-emerge Herbicidal Activity IPOHE (phytotoxicity rating): 14 days after application, rating scale 0-100; for Post-emerge Herbicidal Activity IPOHE: phytotoxicity rating 0-100 at 14 days after application
# Outline: as §2
# [18] = tested on: field corn (Zea mays L., var. Dekalb 535, CORN); assay: Post-emerge test, crop safety; conditions: post-emerge; for CORN phytotoxicity rating (crop damage) / Post-emerge Herbicidal Activity CORN (crop damage rating): 14 days after application, rating scale 0-100; for Post-emerge Herbicidal Activity CORN: crop damage rating 0-100 at 14 days after application
# Outline: as §1
# [19] = tested on: upland rice (Oryza sp., var. Tebonnet, RICE); assay: Post-emerge test, crop safety; conditions: post-emerge; for RICE phytotoxicity rating (crop damage) / Post-emerge Herbicidal Activity RICE (crop damage rating): 14 days after application, rating scale 0-100; for Post-emerge Herbicidal Activity RICE: crop damage rating 0-100 at 14 days after application
# Outline: as §1
# [20] = tested on: field corn (Zea mays L., var. Dekalb 535, CORN); assay: Pre-emerge test, crop safety; conditions: pre-emerge, 14 days after application, scale 0-100
# Outline: (§3)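 Rating: 0–100 visual injury, 14 DAA. Application: acetone, 187 l/ha, 15–1000 g ai/ha, flat-fan track sprayer with nozzle 40–45 cm above soil or canopy. Post-emerge runs used 0.25% v/v surfactant on 2–3 leaf plants.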
# [21] = tested on: upland rice (Oryza sp., var. Tebonnet, RICE); assay: Pre-emerge test, crop safety; conditions: pre-emerge, 14 days after application, scale 0-100
# Outline: as §3
# [22] = 250 g ai/ha, rating scale 0-100
structure (smiles),measurement,setting,value
COc1ccccc1C=CC(=O)Nc1c(OC)c(Cl)cc(F)c1-n1c(=O)cc(C(F)(F)F)n(C)c1=O [2-127],phytotoxicity rating CASOB,[1]; 63 g ai/ha,0
same,phytotoxicity rating CASOB,[1]; 250 g ai/ha,40
same,phytotoxicity rating SETVI,[2]; 63 g ai/ha,20
same,phytotoxicity rating SETVI,[2]; 250 g ai/ha,80
same,phytotoxicity rating ABUTH,[3]; 63 g ai/ha,100
same,phytotoxicity rating ABUTH,[3]; 250 g ai/ha,100
same,phytotoxicity rating CHEAL,[4]; 63 g ai/ha,100
same,phytotoxicity rating CHEAL,[4]; 250 g ai/ha,100
same,phytotoxicity rating DIGSA,[5]; 63 g ai/ha,30
same,phytotoxicity rating DIGSA,[5]; 250 g ai/ha,100
same,phytotoxicity rating ECHCG,[6]; 63 g ai/ha,0
same,phytotoxicity rating ECHCG,[6]; 250 g ai/ha,40
same,phytotoxicity rating IPOHE,[7]; 63 g ai/ha,0
same,phytotoxicity rating IPOHE,[7]; 250 g ai/ha,50
same,phytotoxicity rating AMARE,[8]; 63 g ai/ha,90
same,phytotoxicity rating AMARE,[8]; 250 g ai/ha,100
same,SORHA phytotoxicity rating,[9]; 63 g ai/ha,20
same,SORHA phytotoxicity rating,[9]; 250 g ai/ha,20
same,CASOB phytotoxicity rating,[10]; 63 g ai/ha,100
same,CASOB phytotoxicity rating,[10]; 250 g ai/ha,60
same,SETVI phytotoxicity rating,[11]; 63 g ai/ha,30
same,SETVI phytotoxicity rating,[11]; 250 g ai/ha,40
same,ABUTH phytotoxicity rating,[12]; 63 g ai/ha,100
same,ABUTH phytotoxicity rating,[12]; 250 g ai/ha,100
same,CHEAL phytotoxicity rating,[13]; 63 g ai/ha,70
same,CHEAL phytotoxicity rating,[13]; 250 g ai/ha,100
same,AMARE phytotoxicity rating,"[14]; 63 g ai/ha, rating scale 0-100",100
same,AMARE phytotoxicity rating,[14]; [22],100
same,DIGSA phytotoxicity rating,[15]; 63 g ai/ha,20
same,DIGSA phytotoxicity rating,[15]; 250 g ai/ha,30
same,ECHCG phytotoxicity rating,[16]; 63 g ai/ha,30
same,ECHCG phytotoxicity rating,[16]; 250 g ai/ha,20
same,IPOHE phytotoxicity rating,[17]; 63 g ai/ha,100
same,IPOHE phytotoxicity rating,[17]; 250 g ai/ha,95
same,CORN phytotoxicity rating (crop damage),[18]; 63 g ai/ha,10
same,CORN phytotoxicity rating (crop damage),[18]; 250 g ai/ha,15
same,RICE phytotoxicity rating (crop damage),[19]; 63 g ai/ha,30
same,RICE phytotoxicity rating (crop damage),[19]; 250 g ai/ha,35
same,phytotoxicity rating CORN (crop damage),[20]; 63 g ai/ha,0
same,phytotoxicity rating CORN (crop damage),[20]; 250 g ai/ha,0
same,phytotoxicity rating RICE (crop damage),[21]; 63 g ai/ha,0
same,phytotoxicity rating RICE (crop damage),[21]; 250 g ai/ha,10
COc1c(Cl)cc(F)c(-n2c(=O)n3n(c2=O)CCCC3)c1NC(=O)c1ccc2ccccc2c1 [9-15],Post-emerge Herbicidal Activity SORHA,[9]; 63 g ai/ha,0
same,Post-emerge Herbicidal Activity SORHA,[9]; 250 g ai/ha,10
same,Post-emerge Herbicidal Activity CASOB,[10]; 63 g ai/ha,100
same,Post-emerge Herbicidal Activity CASOB,[10]; 250 g ai/ha,100
same,Post-emerge Herbicidal Activity SETVI,[11]; 63 g ai/ha,10
same,Post-emerge Herbicidal Activity SETVI,[11]; 250 g ai/ha,35
same,Post-emerge Herbicidal Activity ABUTH,[12]; 63 g ai/ha,100
same,Post-emerge Herbicidal Activity ABUTH,[12]; 250 g ai/ha,100
same,Post-emerge Herbicidal Activity CHEAL,[13]; 63 g ai/ha,100
same,Post-emerge Herbicidal Activity CHEAL,[13]; 250 g ai/ha,100
same,Post-emerge Herbicidal Activity AMARE,[14]; 63 g ai/ha,100
same,Post-emerge Herbicidal Activity AMARE,[14]; 250 g ai/ha,100
same,Post-emerge Herbicidal Activity DIGSA,[15]; 63 g ai/ha,0
same,Post-emerge Herbicidal Activity DIGSA,[15]; 250 g ai/ha,20
same,Post-emerge Herbicidal Activity ECHCG,[16]; 63 g ai/ha,0
same,Post-emerge Herbicidal Activity ECHCG,[16]; 250 g ai/ha,10
same,Post-emerge Herbicidal Activity IPOHE,[17]; 63 g ai/ha,100
same,Post-emerge Herbicidal Activity IPOHE,[17]; 250 g ai/ha,100
same,Post-emerge Herbicidal Activity CORN,[18]; 63 g ai/ha,5
same,Post-emerge Herbicidal Activity CORN,[18]; 250 g ai/ha,10
same,Post-emerge Herbicidal Activity RICE,[19]; 63 g ai/ha,40
same,Post-emerge Herbicidal Activity RICE,[19]; 250 g ai/ha,70
Cn1c(C(F)(F)F)cc(=O)n(-c2c(O)cc(Cl)cc2Cl)c1=O [16-1],Post-emerge Herbicidal Activity SORHA (phytotoxicity rating),[9]; 63 g ai/ha,20
same,Post-emerge Herbicidal Activity SORHA (phytotoxicity rating),[9]; 250 g ai/ha,40
same,Post-emerge Herbicidal Activity CASOB (phytotoxicity rating),[10]; 63 g ai/ha,0
same,Post-emerge Herbicidal Activity CASOB (phytotoxicity rating),[10]; 250 g ai/ha,0
same,Post-emerge Herbicidal Activity SETVI (phytotoxicity rating),[11]; 63 g ai/ha,0
same,Post-emerge Herbicidal Activity SETVI (phytotoxicity rating),[11]; 250 g ai/ha,0
same,Post-emerge Herbicidal Activity ABUTH (phytotoxicity rating),[12]; 63 g ai/ha,70
same,Post-emerge Herbicidal Activity ABUTH (phytotoxicity rating),[12]; 250 g ai/ha,100
same,Post-emerge Herbicidal Activity CHEAL (phytotoxicity rating),[13]; 63 g ai/ha,0
same,Post-emerge Herbicidal Activity CHEAL (phytotoxicity rating),[13]; 250 g ai/ha,70
same,Post-emerge Herbicidal Activity AMARE (phytotoxicity rating),"[14]; 63 g ai/ha, rating scale 0-100 (0 no damage, 100 complete death)",70
same,Post-emerge Herbicidal Activity AMARE (phytotoxicity rating),[14]; [22],70
same,Post-emerge Herbicidal Activity DIGSA (phytotoxicity rating),[15]; 63 g ai/ha,20
same,Post-emerge Herbicidal Activity DIGSA (phytotoxicity rating),[15]; 250 g ai/ha,80
same,Post-emerge Herbicidal Activity ECHCG (phytotoxicity rating),[16]; 63 g ai/ha,0
same,Post-emerge Herbicidal Activity ECHCG (phytotoxicity rating),[16]; 250 g ai/ha,0
same,Post-emerge Herbicidal Activity IPOHE (phytotoxicity rating),[17]; 63 g ai/ha,30
same,Post-emerge Herbicidal Activity IPOHE (phytotoxicity rating),[17]; 250 g ai/ha,70
same,Post-emerge Herbicidal Activity CORN (crop damage rating),[18]; 63 g ai/ha,0
same,Post-emerge Herbicidal Activity CORN (crop damage rating),[18]; 250 g ai/ha,0
same,Post-emerge Herbicidal Activity RICE (crop damage rating),[19]; 63 g ai/ha,0
same,Post-emerge Herbicidal Activity RICE (crop damage rating),[19]; 250 g ai/ha,10
